One test has as its system interferon-beta (IFN-β). Briefly: Induction of interferon-beta levels in RAW264.7 macrophages in the presence of STING agonist DMXAA (FIG. 3). Format: cell-based. The note with it: RAW264.7 mouse macrophages.
The next test deals with CT26 cells. Briefly: Proliferation of CT26 cells in the presence of PARP7 inhibitors (CellTiter-Glo, 4 days). Type of test: cell-based, mouse. The note with it: CellTiter-Glo (FIG. 5). The method, then: Example F: Proliferation of CT26 cells in the presence of PARP7 inhibitors
CT26 cells were plated in a 384-well plate and allowed to adhere for several hours before being treated with Compound 18B. Cells were incubated with compound for 4 days prior to processing with CellTiter-Glo reagent (Promega). Luminescence was measured with a Perkin Elmer Envision and percent inhibition was calculated using the vehicle (DMSO) average as 0% inhibition. Non-linear regression analysis was performed using a 4 parameter (variable slope) fit in GraphPad Prism.

The test system of test [1] is NCI-H1373 lung cancer xenograft. Briefly: Inhibition of tumor growth by oral dosing, human NCI-H1373 lung cancer xenograft. Type of test: in vivo. As to conditions: NCI-H1373 xenograft in SCID mice. The source says: (§1) Example H: Inhibition of Tumor Growth by Oral Dosing with a PARP7 Inhibitor
(§2) The effect of Compound 561 on tumor growth was studied in a human NCI-H1373 lung cancer xenograft and a murine CT26 colon cancer syngeneic model.
For the NCI-H1373 study, SCID mice were inoculated subcutaneously in the right flank with NCI-H1373 cells for tumor development. After 5 days of tumor growth, mice with 89-148 mm^3 tumors were randomized into treatment groups with mean tumor volumes of 121 mm^3. The treatments were started from the next day post randomization (defined randomization day as day 0) and were treated with vehicle (50% Labrasol) or Compound 561 (62.5, 125, 250, and 500 mg/kg) once a day for 28 days by oral gavage. Tumor volumes were determined by manual calipers every 2-3 days. Mean tumor volume and SEM are plotted. QD: once a day; PO: per oral administration. Statistical significance is calculated using two-way ANOVA followed by Bonferroni post-tests in which the treatment groups were compared to vehicle control (**** P<0.0001).

For test [2], the system named is CT26 colon cancer syngeneic model. Briefly: Inhibition of tumor growth by oral dosing, murine CT26 colon cancer syngeneic model. Format: in vivo. As to conditions: CT26 in BALB/c mice; BID 125-500 mg/kg or QD 500 mg/kg for 21 days; vs vehicle, P<0.0001 (FIG. 7B).
Description: as §1, §2
For the CT26 study, BALB/c mice were inoculated subcutaneously in the right flank with CT26 cells for tumor development. After 5 days of cell inoculation, mice with 36-79 mm^3 tumors were randomized into treatment groups with mean tumor volumes of 54 mm^3. The treatments were started from the next day post randomization (defined randomization day as day 0) and were treated with vehicle (25 or 50% Labrasol) or Compound 561 BID (2 times a day every 12 hours) at doses ranging from 125-500 mg/kg or QD (once a day) at 500 mg/kg for 21 days by oral gavage or needle subcutaneously. Tumor volumes were determined by manual calipers every 2-3 days. Mean tumor volume and SEM are plotted. BID: twice a day; PO: per oral administration; QD: once a day; SC: per subcutaneous administration. The first two doses for vehicle and Compound 561 500 mg/kg in the QD groups were delivered by subcutaneous injection. […] Statistical significance is calculated using two-way ANOVA followed by Bonferroni post-tests in which the treatment groups were compared to vehicle control (**** P<0.0001).

A further test concerns SW900. Description: Growth inhibition of cancer cell lines, 144 hours (CellTiter-Glo). Type of test: cell-based. As to conditions: Homo sapiens, squamous cell lung carcinoma. How it is done: (§3) Example C: Inhibition of Cancer Cell Growth by Treatment with PARP7 Inhibitors
(§4) Table A-2 and Table A-3 (below) represents the concentration that causes 50% growth inhibition (GI50) in a panel of cancer cell lines with Compound 18B and Compound 561. Cells were plated into 384-well plates at a pre-specified density in fetal bovine serum-containing media. Cells were treated with compound or vehicle (DMSO) 24 hrs later, and a day zero plate was collected for analysis. Test compound plates were incubated continuously for 72 hrs (Table A-2) or 144 hours (Table A-3) cell growth was assessed using a luminescent cell viability assay (CellTiter-Glo, Promega). The GI50was determined by correcting for the cell count at time zero (time of treatment) and plotting data as percent growth relative to vehicle-treated cells.

A further test deals with NCI-H1930. The test is described as above. Format: cell-based. As to conditions: Homo sapiens, small cell lung carcinoma. How it is done: as §3, §4
The next test relates to TE-11. The description is as above. Type of test: cell-based. The note with it: Homo sapiens, esophageal squamous cell carcinoma. The method, then:
as §3, §4

A further test has as its system KMRC-3. The description is as above. Type of test: cell-based. The note with it: clear cell renal carcinoma. The method, then:
as §3, §4

A further test relates to NCI-H1963. Described as above. Format: cell-based. As to conditions: Homo sapiens, small cell lung carcinoma. The method, then:
as §3, §4

The test system of another test is A101D. The description is as above. Format: cell-based. The note with it: Homo sapiens, melanoma. The method, then:
as §3, §4

The subject of the next test is SF126. The test is described as above. Format: cell-based. As to conditions: Homo sapiens, SF-126, glioblastoma multiforme. The method, then: as §3, §4
A further test concerns MCAS. Described as above. Type of test: cell-based. As to conditions: ovarian mucinous cystadenocarcinoma. The method, then: as §3, §4
The test system of another test is HCC1954. Described as above. Type of test: cell-based. The note with it: Homo sapiens, ductal breast carcinoma. How it is done: as §3, §4
Another test deals with H4. The test is described as above. Format: cell-based. The note with it: neuroglioma. The method, then:
as §3, §4

For a further test, the system named is NCI-H1944. The description is as above. Format: cell-based. The note with it: Homo sapiens, lung adenocarcinoma. How it is done: as §3, §4
The subject of another test is GCT. The description is as above. Type of test: cell-based. The note with it: Homo sapiens, undifferentiated pleiomorphic sarcoma. The method, then:
as §3, §4

Another test concerns SCC-25. The description is as above. Type of test: cell-based. As to conditions: Homo sapiens, tongue squamous cell carcinoma. How it is done:
as §3, §4

For another test, the system named is ACC-MESO-1. The description is as above. Type of test: cell-based. The note with it: mesothelioma. The method, then:
as §3, §4

In another test the test system is NCI-H2066. The description is as above. Format: cell-based. As to conditions: squamous cell lung carcinoma. How it is done: as §3, §4
Another test concerns SNU-840. The test is described as above. Type of test: cell-based. The note with it: malignant ovarian Brenner tumor. The method, then: as §3, §4
The subject of another test is NCI-H647. The test is described as above. The note with it: Homo sapiens, lung adenosquamous carcinoma. Format: cell-based. The method, then: as §3, §4
The next test concerns EBC-1. Described as above. As to conditions: Homo sapiens, squamous cell lung carcinoma. Format: cell-based. The method, then:
as §3, §4

The next test relates to MDA-MB-468. The test is described as above. Format: cell-based. As to conditions: Homo sapiens, breast adenocarcinoma. How it is done: as §3, §4
A further test has as its system SK-MES-1. The description is as above. Type of test: cell-based. As to conditions: Homo sapiens, squamous cell lung carcinoma. How it is done: as §3, §4

Structures are written as SMILES.

`N#Cc1ccc(N2CCN(C(=O)c3cccc(OC[C@@H]4c5ccccc5CN4c4cn[nH]c(=O)c4C(F)(F)F)c3)CC2)nc1` (single isomer, unassigned) [Example 18 Isomer B]: the “interferon-beta (IFN-β) levels” value with interferon-beta (IFN-β) is given as “induction”. Besides, the “proliferation in CT26 cells in vitro” value with CT26 cells is “do not inhibit proliferation”.

For `C[C@@H](COCCC(=O)N1CCN(c2ncc(C(F)(F)F)cn2)CC1)Nc1cn[nH]c(=O)c1C(F)(F)F` [Example 561, 5-[[(2S)-1-(3-oxo-3-[4-[5-(trifluoromethyl)pyrimidin-2-yl]piperazin-1-yl]propoxy)propan-2-yl]amino]-4-(trifluoromethyl)-2,3-dihydropyridazin-3-one], the tumor growth result is reported as “significantly reduces tumor growth” in test [1] (62.5, 125, 250 and 500 mg/kg once a day for 28 days by oral gavage, vs vehicle, P<0.0001 (FIG. 7A)); “significantly reduces tumor growth” in [2]. In addition, the tumor regression entry in [1] (62.5 to 500 mg/kg once a day for 28 days, all dose levels) is “complete tumor regression”. Moreover, the GI50 in the test on SW900 is 100 to 1000 nM; in the test on NCI-H1930, at least 1000 nM; in the test with TE-11, at least 1000 nM; with KMRC-3 it was at least 1000 nM; in the test with NCI-H1963 it was at least 1000 nM; in the test on A101D, at least 1000 nM. For the same molecule, the GI50 was at least 1000 nM in the test with SF126; at least 1000 nM in the test on MCAS; at least 1000 nM in the test on HCC1954; at least 1000 nM in the test with H4; at least 1000 nM with NCI-H1944; below 100 nM in the test with GCT. The GI50 in the test on SCC-25 was below 100 nM; in the test with ACC-MESO-1 it was at least 1000 nM; with NCI-H2066 it was at least 1000 nM; with SNU-840 it was at least 1000 nM; in the test on NCI-H647 it was below 100 nM; in the test on EBC-1, below 100 nM. For the same molecule, the GI50 in the test with MDA-MB-468 and with SK-MES-1 was at least 1000 nM each time.

(Values after patent US10550105B2 (Ribon Therapeutics Inc., priority 2018, dated 2020).)
